Laboratory results as given in patent US20070292351A1, “Assay for efficacy of histone deacetylase inhibitors” (Methylgene, Inc., priority 2006, published 2007).

What was measured:
[1] = tested on: human colon cancer HCT15 cells; experiment: RT-PCR of MT3 transcription in HCT15 cells; assay type: cell-based; settings: 16 hours, real-time RT-PCR normalized against beta-actin (FIG. 1)
Method: FIG. 1. […] HCT15 cells were treated with HDAC inhibitors or indicated compounds for 16 hours before total RNAs are isolated. RNA levels of MT3 were measured by real-time RT-PCR and are subsequently normalized against β-actin.
Colon cancer HCT15 cells were exposed to 1 μM MGCD0103 for various amounts of time, and MT3 RNA levels were monitored by conventional semi-quantitative RT-PCR. Maximal induction is achieved between 8 h and 24 h of exposure and maintained through 72 h.
RNA was extracted from 8×10^6 cells using the Qiagen RNeasy Mini kit (cat#74106, Qiagen, Missisauga Ont.) following the manufacturer's instructions. RT reaction was performed using the Expand Reverse Transcriptase kit from Roche (Cat#1 785 834 Roche Applied Biosciences, Laval, Que) with 1 μg total RNA together with 1 μl oligo(dT) primer (cat#y01212, Invitrogen-Canada, Burlington, Ont). cDNA was synthesized using an Eppendorf Mastercycler gradient PCR apparatus (Brinkmann Instruments Canada LTD., Mississauga, Ontario), using a two cycle protocol. For the 1st cycle reaction mixture (0.5 μl H2O, 4 μl of 5× Buffer, 2 μl DTT, 2 ul of 10 mM dNTPs, 0.5 μl RNAsin (cat#N211B, Promega, Fisher Scientific, Whitby, Ont.) and […] of the Expand Reverse Transcriptase (Cat#1785834, Roche, Laval, Quebec)) was incubated at 65° C. for 10 minutes and then set on ice. A second cycle was performed at 42° C. for 1 hour. The resulting cDNA products were kept at 4° C. until used.
One ul of the resulting cDNA was used for every amplification reaction with 18.9 ul H2O, 1.25 ul of 10 mM dNTPs, 0.5 ul of each primer pair, 2.5 ul of 10× Buffer. The PCR reaction was carried out in an Eppendorf Mastercycler gradient. The sequences of the primers used for the amplification of selected biomarkers, as well as the details of the PCR reaction cycles are featured below. All buffers came from Expand Long Template PCR system (Roche, Laval, Quebec, Cat#11681842001). All primers were synthesized by Invitrogen (Invitrogen-Canada, Burlington, Ont.)
Analysis of transcripts was performed using STORM 860 (Amersham Biosciences, Baie d'Urfe, Qubec). Transcription of genes was normalized to transcription of actin, which was performed in the same RT-PCR reaction. The relative expression level of gense was normalized to baseline signals.
Quantitative PCR with SYBR Green I detection with Mastercycler® ep realplex (Eppendorf) was performed using LightCycler® 480 SYBR Green I Master (Roche Diagnostics). SYBR Green I assays were performed with 600 nM primers. All other reaction conditions were as described by the manufacturer. Amplification conditions were 5 minutes of initial denaturation at 95° C., followed by 40 cycles of each 15 seconds at 95° C., 15 seconds at 63.4° C., 20 seconds at 68° C., a melting curve from 60° C. to 95° C. was recorded. Quantification was performed using Pfaffl method, a relative quantification method in real-time PCR (Nucleic Acids Research 2001 29:2002-2007). Primers were synthesized by Invitrogen (Invitrogen-Canada, Burlington, Ont.).

[2] = tested on: peripheral blast cells from AML patients; settings: ex vivo treatment (Nebbioso et al. 2004); cited from earlier work

Row | SMILES | Induction of transcription of MT3 [1] | level of pro-apoptotic TRAIL expression [2]
1 | O=C(CCCCCCC(=O)Nc1ccccc1)NO [SAHA] | induced | 
2 | Nc1ccccc1NC(=O)c1ccc(CNC(=O)OCc2cccnc2)cc1 [MS-275] | induced | increase
